Experiments:
[1] = in vivo; cited from earlier work
[2] = cited from earlier work
[3] = In vivo comparison with an extracellular contrast medium: blood concentrations and pharmacokinetics in rats (ICP-AES, Topfit program); conditions: rats (n=3), i.v.
Method: The suitability of the compound described in Example 1l as a blood-pool agent is shown in the following test.
As test animals, three male (Schering-SPF) rats that are 200-250 g in weight are used. 0.2 ml (respectively 25 mmol/L) of the following contrast medium solution per animal is administered intravenously: mixture of 1 part each of the compound of 1l, named compound 1 below, and the dysprosium complex of 3,6,9-triaza-3,6,9-tris(carboxymethyl)-undecanedioicacid (Dy-DTPA), named compound 2 below. Blood samples are taken with a catheter in the common carotid artery at the following times: 1, 3, 5, 10, 15, 20, 30, 45, 60, 90, 120 minutes p.i. In the blood samples obtained, the concentrations of gadolinium (Gd) and dysprosium (Dy) are measured with the aid of atomic emission spectrometry (ICP-AES) in each case in a parallel manner. The portion of the injected contrast medium of compound 1 (Gd) and compound 2 (Dy, comparison substance), remaining in the blood space, can be compared in the same animals by the different marking. The a- and b-half-lives, the volume of distribution as well as the total clearance can be calculated from the blood concentrations with the aid of special software (Topfit program).
Measured blood concentrations of Gd (compound 1) and Dy (compound 2) in rats (n=3)

[4] = excretion tests in rats; cited from earlier work

In the case of `CNC[C@H](O)[C@@H](O)[C@H](O)[C@H](O)CO.CNC[C@H](O)[C@@H](O)[C@H](O)[C@H](O)CO.O=C([O-])CN(CCN(CC(=O)[O-])CC(=O)O)CCN(CC(=O)[O-])CC(=O)O.[Gd+3]` [Magnevist], the “dispersion space (entire extracellular space: intravascular space and interstitium)” value (“dispersion space” below) [1] is listed as “about 20 % of the volume of the body”.
In the case of `CNC(=O)CN(CCN(CCN(CC(=O)[O-])CC(=O)NC)CC(=O)[O-])CC(=O)[O-].[Gd+3]` [Omniscan], the “dispersion space” value [1] is listed as “about 20 % of the volume of the body”.
In the case of `CC(O)CN1CCN(CC(=O)[O-])CCN(CC(=O)[O-])CCN(CC(=O)[O-])CC1.[Gd+3]` (stereo not shown) [Pro Hance], the “dispersion space” value [1] is given as “about 20 % of the volume of the body”.
For `COCC(=O)Nc1c(I)c(C(=O)NCC(O)CO)c(I)c(C(=O)N(C)CC(O)CO)c1I` (stereo not shown) [Ultravist], the “dispersion space” value [1] is listed as “about 20 % of the volume of the body”.
In the case of albumin-GdDTPA, the “concentration in the liver tissue” value ([2]; 24 h after intravenous injection in rats) is given as ~30 % of the dose and the dose eliminated ([2]; in 24 hours, rats, i.v.) is given as 20 % of the dose.
In the case of “dysprosium complex of 3,6,9-triaza-3,6,9-tris(carboxymethyl)-undecanedioicacid [Compound 2, reference compound]”, the “Vd ss (volume of distribution)” value [3] was 0.41 ± 0.04 L/kg, the α-t1/2 ([3]; blood) was 1.5 ± 0.5 min and the β-t1/2 ([3]; blood) was 19.2 ± 2.5 min.
In the case of polylysine-GdDTPA, the “excretion (in words)” value [4] is listed as “excreted unchanged by glomerular filtration through the kidneys”.

Reference: patent publication US6057419A, “Cascade polymer complexes, process for producing the same and pharmaceuticals containing the same” (Schering Aktiengesellschaft, priority 1995, dated 2000)
